Assay results from patent US20260048046A1, “METHOD FOR IMPROVING GROWTH PERFORMANCE IN FEEDLOT CATTLE” (Elanco US Inc., priority 2022, published 2026).

Test system: beef feedlot cattle
Assay: 56-d study: growth performance
Assay type: in vivo
Parameters: Average daily dry matter (DMI) / Average daily dry matter (DMI), difference from control: unit not given here
Conditions: for Average daily dry matter (DMI) / Average daily gain (ADG) / Gain:feed, ADG:DMI / Final BW: 56 d treatment, steers, LS mean; for Final BW: initial weight as covariate
Experimental: This example describes a randomized complete block study that evaluated LUB dose (0, 1.5, 3.5, and 5.5 mg kg^−1 dry matter) during the last 56 d of the feeding period on live weight, carcass weight, and associated ratios in beef feedlot cattle. Carcass characteristics, mobility, and health were also evaluated. All cattle received monensin and tylosin throughout the study.
A randomized complete block design was used to evaluate the effects of LUB on calculated growth performance of 2,880 British and Continental European crossbred steers typical for U.S. feedlots. Bos indicus breeding was limited to less than ⅛. The study evaluated four
LUB doses: 0 (control, CON), 1.5, 3.5, and 5.5 mg·kg^−1 DM. There were 12 blocks, each block containing four replicate pens that started LUB feeding on the same date. Steers were randomized within each block of four pens with 60 steers per pen, resulting in a total of 720 steers enrolled in each treatment. LUB feeding started on Jun. 24, 2018, Jul. 1, 2018, and Jul. 15, 2018, four blocks on each date.
Beginning no later than approximately d −70, animals were fed a diet containing Rumensin (monensin 46.3 mg·kg^−1 100% DM basis; Elanco, Greenfield, IN, USA) and Tylan (tylosin 8.9 mg·kg^−1 100% DM basis; Elanco) ad libitum. Cattle in the LUB treatments were switched from the basal finishing ration to the finishing ration containing the appropriate concentrations of LUB Type A premix at the start of the treatment period (d −57). Table 5 lists the composition and the formulated nutrient composition of the finishing diet. The diet was designed to meet or exceed the minimum nutrient requirements cited in Nutrient Requirements of Beef Cattle (NASEM, 2016). LUB was delivered to the cattle using a 1% LUB Type A premix prepared and delivered by Elanco (Clinton Laboratories, Clinton, IN, USA), and the ration was prepared on-site at the research facility. The 1% Type A premix was delivered into the ration by flushing the 1% Type A premix through a micro-ingredient machine (Micro Technologies, Amarillo, TX) with water, which was included at approximately 27 kg of the “as-fed” ration, for each 3,629 kg batch. The 1% Type A premix was included in the finishing ration at 0, 0.0154%, 0.0353%, or 0.0551% (100% DM) to provide CON, 1.5, 3.5, or 5.5 mg·kg^−1 LUB (100% DM). The on-site feed mixers used to mix (stationary horizontal paddle mixer [Cactus Varied Industries, Amarillo, TX, USA]) and deliver (Roto-Mix 490-14 and Roto-Mix 620-16, Roto-Mix LLC, Dodge City, KS) the Type C feed were qualified to confirm that the ration could be mixed homogeneously before feeding medicated feed. Cattle were fed in order of CON, 1.5, 3.5, or 5.5 mg·kg^−1 doses of LUB. Prior to mixing the CON batches, the mixer was flushed with appropriate amount of non-medicated feed or other cattle feed to assure no carryover of test compound. Feed was issued three times each day at approximately the same time each day. Bunk calls were made at the time of first feeding and amount of feed issued for the third feeding was adjusted based on daily bunk calls according to site procedures. The feeding goal was to have slick bunks prior to the first feeding and approximately ⅓ of the cattle at the bunk, ⅓ of the cattle moving to the bunk, and ⅓ of the cattle not moving to the bunk at time of first feeding. Water was available ad libitum throughout the study. The weight of feed issued was recorded and electronic feed records were provided for data analysis.
Animals were weighed individually at the time of randomization (approximately d −69 to d −66) and this weight was used to exclude steers with extreme BW from the trial. All other BW (unshrunk) were collected by pen and used for calculation of growth performance. Scheduled pen weights were taken prior to feed delivery and collected on d −59 (2 d before treatment start, which was considered the treatment start weight) and d 0 (1 d after the end of treatment, which was considered the treatment end weight). […]

[1] = steers fed LUB (doses pooled), 56 d

CC(C)(Cc1ccc(Oc2ncccc2C#N)cc1)NC[C@H](O)COc1ccccc1-c1cccs1 [LUB, 2-{4-[2-({(2S)-2-Hydroxy-3-[2-(2-thienyl)phenoxy]propyl}amino)-2-methylpropyl]phenoxy}nicotinonitrile]
Average daily dry matter (DMI), difference from control (1.5 mg·kg^−1 vs. control, 56 d): 0.2 | Average daily dry matter (DMI), percent change from Control (1.5 mg·kg^−1 vs. control, 56 d): 2.0% | Average daily gain (ADG), difference from control (1.5 mg·kg^−1 vs. control, 56 d): 0.19 kg | Average daily gain (ADG), percent change from Control (1.5 mg·kg^−1 vs. control, 56 d): 11.3% | Final BW, difference from control (1.5 mg·kg^−1 vs. control, 56 d): 11.6 kg | Final BW, percent change from Control (1.5 mg·kg^−1 vs. control, 56 d): 1.7% | Gain:feed, ADG:DMI, difference from control (1.5 mg·kg^−1 vs. control, 56 d): 0.015 | Gain:feed, ADG:DMI, percent change from Control (1.5 mg·kg^−1 vs. control, 56 d): 9.0% | Average daily dry matter (DMI), difference from control (3.5 mg·kg^−1 vs. control, 56 d): 0.3 | Average daily dry matter (DMI), percent change from Control (3.5 mg·kg^−1 vs. control, 56 d): 3.0% | Average daily gain (ADG), difference from control (3.5 mg·kg^−1 vs. control, 56 d): 0.26 kg | Average daily gain (ADG), percent change from Control (3.5 mg·kg^−1 vs. control, 56 d): 15.5% | Final BW, difference from control (3.5 mg·kg^−1 vs. control, 56 d): 15.7 kg | Final BW, percent change from Control (3.5 mg·kg^−1 vs. control, 56 d): 2.4% | Gain:feed, ADG:DMI, difference from control (3.5 mg·kg^−1 vs. control, 56 d): 0.028 | Gain:feed, ADG:DMI, percent change from Control (3.5 mg·kg^−1 vs. control, 56 d): 12.0% | Average daily dry matter (DMI), difference from control (5.5 mg·kg^−1 vs. control, 56 d): 0.2 | Average daily dry matter (DMI), percent change from Control (5.5 mg·kg^−1 vs. control, 56 d): 2.0% | Average daily gain (ADG), difference from control (5.5 mg·kg^−1 vs. control, 56 d): 0.24 kg | Average daily gain (ADG), percent change from Control (5.5 mg·kg^−1 vs. control, 56 d): 14.3% | Final BW, difference from control (5.5 mg·kg^−1 vs. control, 56 d): 14.3 kg | Final BW, percent change from Control (5.5 mg·kg^−1 vs. control, 56 d): 2.1% | Gain:feed, ADG:DMI, difference from control (5.5 mg·kg^−1 vs. control, 56 d): 0.019 | Gain:feed, ADG:DMI, percent change from Control (5.5 mg·kg^−1 vs. control, 56 d): 11.4% | Average daily dry matter (DMI) (LUB 1.5 mg·kg^−1 DM): 10.3 | Average daily gain (ADG) (LUB 1.5 mg·kg^−1 DM): 1.87 kg | Gain:feed, ADG:DMI (LUB 1.5 mg·kg^−1 DM): 0.182 | Final BW (LUB 1.5 mg·kg^−1 DM): 679.0 kg | Average daily dry matter (DMI) (LUB 3.5 mg·kg^−1 DM): 10.4 | Average daily gain (ADG) (LUB 3.5 mg·kg^−1 DM): 1.94 kg | Gain:feed, ADG:DMI (LUB 3.5 mg·kg^−1 DM): 0.187 | Final BW (LUB 3.5 mg·kg^−1 DM): 683.1 kg | Average daily dry matter (DMI) (LUB 5.5 mg·kg^−1 DM): 10.3 | Average daily gain (ADG) (LUB 5.5 mg·kg^−1 DM): 1.92 kg | Gain:feed, ADG:DMI (LUB 5.5 mg·kg^−1 DM): 0.186 | Final BW (LUB 5.5 mg·kg^−1 DM): 681.7 kg | Average daily gain [1]: 1.91 kg | Average daily gain greater than control [1]: 13.7% | Gain efficiency [1]: 0.185 | Gain efficiency greater than control [1]: 10.8% | Daily dry matter intake greater than control (steers that received LUB (doses pooled), 56 d): 2.3%
